Experimental data reported in the NIST ThermoML archive (doi:10.1016/j.tca.2013.07.012).

Key:
[1] = 101 kPa, Liquid, Vibrating tube method
[2] = xn = mol fraction of the nth substance listed; details: 101 kPa, Liquid, Vibrating tube method, x2 = 0

OCC(O)CO [glycerol]
[1]
Details | mass density [kg/m3]
278.15 K | 1270.87
288.15 K | 1264.4
293.15 K | 1260.99
298.15 K | 1257.91
308.15 K | 1251.66
323.15 K | 1242.11
333.15 K | 1235.71
348.15 K | 1225.79

O [water]
[1]
Details | mass density [kg/m3]
274.15 K | 999.9
275.15 K | 999.94
276.15 K | 999.96
277.15 K | 999.97
278.15 K | 999.96
279.15 K | 999.94
280.15 K | 999.9
281.15 K | 999.85
282.15 K | 999.78
283.15 K | 999.7
323.15 K | 988.03
333.15 K | 983.19
348.15 K | 974.84

O [water] + OCC(O)CO
[2]
Details | mass density [kg/m3]
274.15 K | 999.9
275.15 K | 999.94
276.15 K | 999.96
277.15 K | 999.97
278.15 K | 999.96
279.15 K | 999.94
280.15 K | 999.9
281.15 K | 999.85
282.15 K | 999.78
283.15 K | 999.7
323.15 K | 988.03
333.15 K | 983.19
348.15 K | 974.84
